Reference: US11090276B2, “Formulation of fat-soluble vitamin” (BASF SE, priority 2014, dated 2021)

Assay: Loss of MK-7 on direct compression into tablets with calcium or magnesium excipients
Type: physicochemical
Conditions: directly compressed with excipients such as calcium or magnesium
Source text: However, vitamins K1 and K2 degrade when formulated in a conventional dosage form, such as a tablet, in the presence of mineral salts, in particular calcium or magnesium salts. Moreover, during formulation of the dosage form, there is a still yet further opportunity for degradation. When directly compressed along with some excipients in a tablet such as calcium or magnesium, a serious reduction in the amount of MK-7 present after tableting can be observed, such as up to 30% reduction in MK-7. As MK-7 is expensive, that is not an acceptable loss on formulation. The MK-7 degradation appears to be accelerated in the presence of calcium or magnesium. As calcium and magnesium are valuable minerals, it is desirable to be able to formulate vitamins in general and MK-7 in particular with calcium and magnesium.

With `CC(C)=CCC/C(C)=C/CC/C(C)=C/CC/C(C)=C/CC/C(C)=C/CC/C(C)=C/CC/C(C)=C/CC1=C(C)C(=O)c2ccccc2C1=O` [MK-7] the “reduction in MK-7 after tableting” value was “up to 30%”.
